What was measured:
Format in all cases: cell-based
[1] = molecular target: DOR (Homo sapiens, UniProt P41143); test: DOR calcium mobilization agonist/antagonist screen (CHO-RD-HGA16 cells); design: host or cells: CHO-RD-HGA16; details: single concentration; for Emax: CHO-RD-HGA16, agonist screen, control agonist DPDPE
[2] = molecular target: T1, CCR3 (Homo sapiens, UniProt P51677); test: NanoBiT β-arrestin-1 recruitment, receptor selectivity panel, CCR3; details: higher concentrations (3 μM, 10 μM); FIG. 3 sections B and C
T1 construct: expressed in transfected cells; host or cells: U87
T1 sequence (P51677 1-355): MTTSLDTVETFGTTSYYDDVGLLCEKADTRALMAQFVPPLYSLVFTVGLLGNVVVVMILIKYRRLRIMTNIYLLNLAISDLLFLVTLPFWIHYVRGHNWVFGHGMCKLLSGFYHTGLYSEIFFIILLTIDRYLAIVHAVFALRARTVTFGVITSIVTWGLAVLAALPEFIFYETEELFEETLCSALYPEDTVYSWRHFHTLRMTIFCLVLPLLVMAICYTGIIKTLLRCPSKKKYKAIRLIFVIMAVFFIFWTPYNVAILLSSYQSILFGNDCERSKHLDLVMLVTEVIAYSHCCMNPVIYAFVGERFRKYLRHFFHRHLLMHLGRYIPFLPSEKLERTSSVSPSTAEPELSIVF
Method: To further assess the selectivity profile of the compounds of the invention towards ACKR3, the ability to activate the 21 classical and 4 atypical chemokines receptors and related receptors was tested using the NanoBiT assay based β-arrestin-1 recruitment described previously. The 4 classical opioid receptors described above were also included in the experimental setup. The compounds WW-1 (conolidine) and WW-12 were tested at three different concentrations, 1 μM, 3 μM and 10 μM.
This possible off-target effect was further characterized by comparing the ability of the two molecules to activate receptors ACKR4, CX3CR1 and CCR3 with reference ligands for the receptors, namely CCL19, CX3CL1 and CCL13.
Ligand-induced β-arrestin recruitment to chemokine and opioid receptors was monitored by NanoLuc complementation assay (NanoBiT, Promega). […] Ligand-induced, β-arrestin to GPCRs was evaluated with a Mithras LB940 luminometer (Berthold Technologies, running on MicroWin 2010 5.19 software (Mikrotek Laborsysteme)) for 20 minutes.
For single dose screening experiments on all chemokine receptors(FIG. 3), the results are represented as percentage of signal monitored with 100 nM of one known agonist chemokine listed in the IUPHAR repository of chemokine receptor ligands which was added as positive control.

[3] = molecular target: MOR (Homo sapiens, UniProt P35372); test: NanoBiT-based β-arrestin-2 recruitment assay, MOR; design: expressed in transfected cells; host or cells: U87; details: concentration range 0.15 nM to 80 μM; reference BAM22
Method: The ability of the different molecules to activate the four opioid receptors MOR, DOR, KOR and NOP that are known to mediate in vivo analgesic effects was tested using the NanoBiT-based β-arrestin-2 recruitment assay in a concentration range of 0.15 nM to 80 μM. For each of these receptors a reference ligand corresponding to an endogenous opioid peptide i.e. Met-enkephalin, BAM22, Dynorphin A and Nociceptin, respectively was included.
Ligand-induced β-arrestin recruitment to chemokine and opioid receptors was monitored by NanoLuc complementation assay (NanoBiT, Promega). In brief, 1.2×10^6 U87 cells were plated in 10-cm culture dishes and 48 hours later co-transfected with pNBe vectors encoding GPCRs (ACKR3, MOR, DOR, KOR, or NOP) C-terminally tagged with SmBiT and human β-arrestin-1 (arrestin-2) or β-arrestin-2 (arrestin-3) N-terminally fused to LgBiT. 48 hours post-transfection cells were harvested, incubated 25 minutes at 37° C. with Nano-Glo Live Cell substrate diluted 200-fold and distributed into white 96-well plates (5×10^4 cells per well). Ligand-induced, β-arrestin to GPCRs was evaluated with a Mithras LB940 luminometer (Berthold Technologies, running on MicroWin 2010 5.19 software (Mikrotek Laborsysteme)) for 20 minutes.
For concentration-response curves (FIG. 2), the signal recorded with a saturating concentration of full agonist for each receptor was set as 100%. […]

Sequence of DOR (P41143 whole entry): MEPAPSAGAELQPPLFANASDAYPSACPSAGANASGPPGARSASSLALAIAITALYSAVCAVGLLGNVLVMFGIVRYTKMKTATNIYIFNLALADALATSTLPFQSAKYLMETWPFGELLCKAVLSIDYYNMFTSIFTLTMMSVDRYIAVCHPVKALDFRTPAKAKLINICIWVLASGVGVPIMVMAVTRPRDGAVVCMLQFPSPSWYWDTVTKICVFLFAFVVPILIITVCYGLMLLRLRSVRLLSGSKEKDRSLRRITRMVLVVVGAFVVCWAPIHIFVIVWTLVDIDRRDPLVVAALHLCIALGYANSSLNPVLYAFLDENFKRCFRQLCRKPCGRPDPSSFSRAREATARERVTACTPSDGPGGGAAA
Sequence of MOR (P35372 whole entry): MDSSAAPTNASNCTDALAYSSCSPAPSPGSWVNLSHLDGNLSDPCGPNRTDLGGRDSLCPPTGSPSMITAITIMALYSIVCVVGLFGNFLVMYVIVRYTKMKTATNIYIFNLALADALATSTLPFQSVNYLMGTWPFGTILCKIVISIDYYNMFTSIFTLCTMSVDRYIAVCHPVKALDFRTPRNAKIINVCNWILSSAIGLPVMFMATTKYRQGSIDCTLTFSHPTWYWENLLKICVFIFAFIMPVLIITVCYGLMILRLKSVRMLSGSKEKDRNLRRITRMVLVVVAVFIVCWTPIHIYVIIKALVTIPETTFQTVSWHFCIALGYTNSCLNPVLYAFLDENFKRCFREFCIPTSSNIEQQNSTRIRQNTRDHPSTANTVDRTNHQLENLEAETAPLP

SMILES | Emax [1] [%] | DOR Calcium % DPDPE Inhibition ([1]; antagonist screen, vs EC60 of DPDPE) [%] | activation of CCR3 (β-arrestin-1 recruitment) in receptor panel [2] | activation of MOR (β-arrestin-2 recruitment) [3]
C/C=C1/CN2CC[C@H]1C(=O)c1[nH]c3ccccc3c1C2 [WW-1, (4E,5R)-4-ethylidene-1,4,5,7-tetrahydro-2,5-ethanoazocino[4,3-b]indol-6(3H)-one] | 0 | 22 | weak activation | not active
C/C=C1/CN(CCCCC)CC[C@H]1C(=O)c1cc2ccccc2[nH]1 [WW-12, [(3E,4R)-3-ethylidene-1-pentylpiperidin-4-yl](1H-indol-2-yl)methanone] | 6 | – | weak activation | not active

From patent publication US20240059688A1, “CONOLIDINE ANALOGUES AS SELECTIVE ACKR3 MODULATORS FOR THE TREATMENT OF CANCER” (Luxembourg Institute of Health (LIH), priority 2020, published 2024)
